Measured values reported in patent US5314910A, “Ester inhibitors” (Cortech Inc., priority 1993, dated 1994).

These compounds were tested against T1, human neutrophil elastase (HNE) (Homo sapiens, UniProt P08246) (assay: Potency (I50 Determination), HNE inhibition). Conditions: substrate N-methoxysuccinyl-ala-ala-pro-val-pNA, pH 7.7, 7 minutes incubation at room temperature, 405 nm.
T1 sequence (P08246 30-267): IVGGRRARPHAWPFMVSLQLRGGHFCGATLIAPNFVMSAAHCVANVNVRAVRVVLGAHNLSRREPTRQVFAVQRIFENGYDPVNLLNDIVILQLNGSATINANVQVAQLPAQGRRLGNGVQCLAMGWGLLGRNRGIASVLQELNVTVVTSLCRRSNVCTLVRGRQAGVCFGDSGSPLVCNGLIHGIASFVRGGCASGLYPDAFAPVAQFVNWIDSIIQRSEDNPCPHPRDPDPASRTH
Type: biochemical
Protocol: Potency (I50 Determination)
A) 0.075 M sodium phosphate, 20% dimethyl sulfoxide (DMSO), pH 7.7=substrate and inhibitor buffer
B) 0.075 M sodium phosphate, no DMSO, pH 7.7=inhibitor buffer
C) 10 mM human neutrophil elastase (HNE) substrate=N-methoxysuccinyl-ala-ala-pro-val-pNA in DMSO
D) 0.01 M sodium acetate, 20% DMSO, pH 5.5=enzyme buffer (dilution)
E) 0.01 M sodium acetate, pH 5.5 enzyme buffer (storage)
F) HNE (1 mg) dissolved in 1 ML of reagent E for storage at -20° C.
Make a 10 mM stock of the inhibitor in DMSO. Dilute an aliquot (10 μL) up to 1.0 mL in reagent A (100 μM). Serially dilute 100 μL of the 100 μM stock to […], 1.0, 0.1, 0.01 μM in reagent A. Apply 100 μL of the diluted material to the wells of a 96-well plate. Dilute an aliquot of reagent F 1:150 in reagent D, apply 50 μL aliquots to the indicated wells and incubate for 7 minutes at room temperature.
The HNE substrate solution is made by taking 100 μL of reagent C into 500 μL of reagent A and 400 μL of reagent B. After the 7 minutes of incubation, the substrate (50 μL) is applied to each well. The HNE catalyzed reaction is then monitored spectrophotometrically at 405 nm using an ELISA plate reader machine (UVMAX, Molecular Devices) which processes the raw data with an on-board kinetics program. The enzyme activity is plotted against different inhibitor concentrations and the […] is determined by using a curve fitting software program. Once the "screening" I50 has been approximated, a more precise I50 value can be obtained by examination of inhibitor concentrations around this value.

First: CCC(C(=O)Oc1ccc([S+](C)[O-])cc1)c1cccn1C (centres unmarked) [Compound 16, 4-Methylsulfinylphenyl 2-(1-Methyl-2-pyrrole)butyrate]
Second: CCC(C(=O)Oc1ccc(SC)cc1)c1cccn1C (centres unmarked) [Compound 15, 4-Methylmercaptophenyl 2-(1-Methyl-2-pyrrole)butyrate]
The IC50 of the first is 13-fold lower: 460 nM for the first, 6200 nM for the second. The first is the more potent here.

First: CCC(C(=O)Oc1ccc(S(C)(=O)=O)cc1)c1ccoc1 (centres unmarked) [Compound 3]
Second: CCC(C(=O)Oc1ccc(S(C)(=O)=O)cc1)c1ccsc1 (centres unmarked) [Compound 13, 4-Methylsulfonylphenyl 1-(3-thiophene)butyrate]
The IC50 of the first is 9.4-fold higher: 470 nM for the first, 50 nM for the second. The second is the more potent here.

Compared with CCC(C(=O)Oc1ccc(SC)cc1)c1coc2ccccc12 (centres unmarked) [Compound 4], CCC(C(=O)Oc1ccc([S+](C)[O-])cc1)c1coc2ccccc12 (centres unmarked) [Compound 5] is 9-fold lower in IC50: 3800 nM for the first, 420 nM for the second.

Going from CCC(C(=O)Oc1ccc(SC)cc1)c1ccsc1 (centres unmarked) [Compound 11, 4-Methylmercaptophenyl 2-(3-thiophene)butyrate] to CCC(C(=O)Oc1ccc([S+](C)[O-])cc1)c1ccsc1 (centres unmarked) [Compound 12, 4-Methylsulfinylphenyl 2-(3-thiophene)butyrate], the IC50 falls from 1500 nM to 130 nM (12-fold).

First: CCC(C(=O)Oc1ccc(S(C)(=O)=O)cc1)c1cccn1C (centres unmarked) [Compound 17, 4-Methylsulfonylphenyl 2-(1-Methyl-2-pyrrole)butyrate]
Second: CCC(C(=O)Oc1ccc([N+](=O)[O-])cc1)c1cccn1C (centres unmarked) [Compound 18]
The IC50 of the first is 3.3-fold lower: 60 nM for the first, 200 nM for the second.

First: CCC(C(=O)Oc1ccc([N+](=O)[O-])cc1)c1ccsc1 (centres unmarked) [Compound 14]
Second: CCC(C(=O)Oc1ccc([N+](=O)[O-])cc1)c1cccs1 (centres unmarked) [Compound 10]
The IC50 of the first is 2.2-fold lower: 120 nM for the first, 270 nM for the second. The first is the more potent here.

Compared with CCC(C(=O)Oc1ccc(SC)cc1)c1c[nH]c2ccccc12 (centres unmarked) [Compound 21], CCC(C(=O)Oc1ccc([S+](C)[O-])cc1)c1c[nH]c2ccccc12 (centres unmarked) [Compound 22] is 17-fold lower in IC50: 33000 nM for the first, 1900 nM for the second. The second is the more potent here.

Compared with CCC(C(=O)Oc1ccc(SC)cc1)c1cccs1 (centres unmarked) [Compound 7], CCC(C(=O)Oc1ccc([S+](C)[O-])cc1)c1cccs1 (centres unmarked) [Compound 8] is 7-fold lower in IC50: 3000 nM for the first, 430 nM for the second. The second is the more potent here.

Compared with CCC(C(=O)Oc1ccc(SCC(C)(C)C(=O)O)cc1)c1cccn1C (centres unmarked) [Compound 19, 4-(2'-Carboxy-2'-methylpropylmercapto)phenyl 2-(1-Methyl-2-pyrrole)butyrate], CCC(C(=O)Oc1ccc([S+]([O-])CC(C)(C)C(=O)O)cc1)c1cccn1C (centres unmarked) [Compound 20, 4-(2,-Carboxy-2'-methylpropylsulfinyl)phenyl 2-(1-Methyl-2-pyrrole)butyrate] is 3-fold higher in IC50: 200 nM for the first, 590 nM for the second.

Going from CCC(C(=O)Oc1ccc(SC)cc1)c1ccoc1 (centres unmarked) [Compound 1] to CCC(C(=O)Oc1ccc([S+](C)[O-])cc1)c1ccoc1 (centres unmarked) [Compound 2], the IC50 falls from 6060 nM to 1440 nM (4.2-fold). The second is the more potent here.

Compared with CCC(C(=O)Oc1ccc(S(C)(=O)=O)cc1)c1cccs1 (centres unmarked) [Compound 9], CCC(C(=O)Oc1ccc(S(C)(=O)=O)cc1)c1coc2ccccc12 (centres unmarked) [Compound 6] is 1.9-fold lower in IC50: 290 nM for the first, 150 nM for the second. The second is the more potent here.

Each compound was assayed on ischemia reperfusion injuries (myocardial infarct size) (assay: Ischemia reperfusion injury in dogs, myocardial infarct size). Conditions: not given.
Type: in vivo, dog
Protocol: Experiments have been conducted on dogs to study the effect of the compounds of the invention in the treatment of ischemia reperfusion injuries.
The protocol used in the experiment referred to in the preceding paragraph involved the following:
Male mongrel dogs (13 to 17 kg) were anesthetized with sodium pentobarbital, 30 mg/kg i.v., intubated and ventilated with room air via a Harvard respirator. Lead II of the electrocardiogram and hemodynamics were monitored continuously throughout the course of the experiment. A catheter was inserted into the left carotid artery and advanced into the left ventricle for the continuous recording of left ventricular pressure. […] After 24 hr of reperfusion, the animal was reanesthetized, the thoracotomy incision opened, the heart fibrillated electrically and removed rapidly for postmortem quantification of infarct size.
Animals were randomized to receive either the test compound or a placebo (diluent) administered as an intracoronary infusion via a catheter inserted into the left circumflex coronary artery just distal to the point at which the vessel is occluded. The dose was determined on the basis of known pharmacokinetic data and the infusion was maintained throughout the 90 period of regional ischemia as well as during the 24 hour reperfusion period. […]

For CCC(C(=O)Oc1ccc([S+](C)[O-])cc1)c1cccn1C (centres unmarked) [Compound 16, 4-Methylsulfinylphenyl 2-(1-Methyl-2-pyrrole)butyrate], the “reduction in infarct size compared to the controls (in words)” value was “significant reduction in infarct size”.
